Assay results published in patent publication US20260183402A1, “NUTRITIONAL COMPOSITION” (priority 2010, published 2026).
Read-outs that look alike come from different tables or passages of the source.

Details: normal human subjects, measured over 24 hours

Structure (SMILES): C[C@@H](O)CCOC(=O)C[C@@H](C)O [D-β-hydroxybutyrate-R 1,3-butanediol monoester]
- maximum plasma ketone concentration (single dose 140 mg/kg ketone ester in milk-based drink): 0.23 mM
- maximum plasma ketone concentration (single dose 357 mg/kg ketone ester in milk-based drink): 0.76 mM
- maximum plasma ketone concentration (single dose 714 mg/kg ketone ester in milk-based drink): 3.42 mM
